The results in this text go back to US8461152B2, “Arylcyclohexylethers of dihydrotetraazabenzoazulenes” (Hoffmann-La Roche Inc., priority 2008, dated 2013).

The structures appear in SMILES notation. Counter-ions that a name gives are not always drawn.

T1 sequence (P37288 whole entry): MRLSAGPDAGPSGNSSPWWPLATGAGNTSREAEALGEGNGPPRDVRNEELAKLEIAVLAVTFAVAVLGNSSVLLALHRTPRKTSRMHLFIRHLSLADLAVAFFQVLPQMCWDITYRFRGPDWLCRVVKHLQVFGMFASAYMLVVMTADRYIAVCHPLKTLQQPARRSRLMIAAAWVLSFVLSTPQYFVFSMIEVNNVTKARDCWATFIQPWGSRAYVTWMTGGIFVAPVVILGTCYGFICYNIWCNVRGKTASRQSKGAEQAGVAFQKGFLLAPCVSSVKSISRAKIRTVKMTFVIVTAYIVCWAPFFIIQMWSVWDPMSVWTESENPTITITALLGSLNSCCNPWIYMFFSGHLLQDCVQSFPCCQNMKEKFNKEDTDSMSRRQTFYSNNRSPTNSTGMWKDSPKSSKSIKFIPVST

This assay concerns the target T1, human V1a receptor (Homo sapiens, UniProt P37288).
T1 construct: expressed in transfected cells; host or cells: HEK293 cells, transiently transfected; membrane preparation
Kind of assay: human V1a receptor binding studies (SPA, 3H-Vasopressin, membranes of transfected HEK293 cells). The conditions noted are these: displacement of 3H-Vasopressin, HEK293 cell membranes, 1 h at room temperature; Ki by Cheng-Prussoff equation; read-out: pKi (hV1a) (converted). The protocol: The human V1a receptor was cloned by RT-PCR from total human liver RNA. The coding sequence was subcloned in an expression vector after sequencing to confirm the identity of the amplified sequence. […] Cell membranes were prepared from HEK293 cells transiently transfected with the expression vector and grown in 20 liter fermenters with the following protocol.
50 g of cells are resuspended in 30 ml freshly prepared ice cold Lysis buffer (50 mM HEPES, 1 mM EDTA, 10 mM magnesium dichloride adjusted to pH=7.4+complete cocktail of protease inhibitor (Roche Diagnostics)). Homogenized with Polytron for 1 min and sonicated on ice for 2×2 minutes at 80% intensity (Vibracell sonicator). The preparation is centrifuged 20 min at 500 g at 4° C., the pellet is discarded and the supernatant centrifuged 1 hour at 43'000 g at 4° C. (19'000 rpm). The pellet is resuspended in 12.5 ml Lysis buffer+12.5 ml Sucrose 20% and homogenized using a Polytron for 1-2 min. The protein concentration is determined by the Bradford method and aliquots are stored at −80° C. until use. For binding studies 60 mg Yttrium silicate SPA beads (Amersham) are mixed with an aliquot of membrane in binding buffer (50 mM Tris, 120 mM sodium chloride, 5 mM potassium chloride, 2 mM Calcium dichloride, 10 mM magnesium dichloride) for 15 minutes with mixing. 50 μl of bead/membrane mixture is then added to each well of a 96 well plate, followed by 50 μl of 4 nM 3H-Vasopressin (American Radiolabeled Chemicals). For total binding measurement 100 μl of binding buffer are added to the respective wells, for non-specific binding 100 μl of 8.4 mM cold vasopressin and for compound testing 100 μl of a serial dilution of each compound in 2% dimethyl sulfoxide. The plate is incubated 1 h at room temperature, centrifuged […] at 1000 g and counted on a Packard Top-Count. Non-specific binding counts are subtracted from each well and data is normalized to the maximum specific binding set at 100%. To calculate an IC 50 the curve is fitted using a non-linear regression model (XLfit) and the Ki is calculated using the Cheng-Prussoff equation.
Take `CC(C)(C)OC(=O)N1Cc2cc(Cl)ccc2-n2c(nnc2[C@H]2CC[C@H](Oc3ccccc3)CC2)C1` [Example 1, trans-8-Chloro-1-(4-phenoxy-cyclohexyl)-4H,6H-2,3,5,10b-tetraaza-benzoazulene-5-carboxylic acid tert-butyl ester]: the Ki was 3.24 nM.

As to `Clc1ccc2c(c1)CNCc1nnc([C@H]3CC[C@H](Oc4ccccc4)CC3)n1-2` [Example 2, trans-8-Chloro-1-(4-phenoxy-cyclohexyl)-5,6-dihydro-4H-2,3,5,10b-tetraaza-benzoazulene hydrochloride], the Ki is 4.37 nM.

Take `CN1Cc2cc(Cl)ccc2-n2c(nnc2[C@H]2CC[C@H](Oc3ccccc3)CC2)C1` [Example 3, trans-8-Chloro-5-methyl-1-(4-phenoxy-cyclohexyl)-5,6-dihydro-4H-2,3,5,10b-tetraaza-benzo[e]azulene]: the Ki is 1.58 nM.

Take `CC(=O)N1Cc2cc(Cl)ccc2-n2c(nnc2[C@H]2CC[C@H](Oc3ccccc3)CC2)C1` [Example 4, trans-1-[8-Chloro-1-(4-phenoxy-cyclohexyl)-4H,6H-2,3,5,10b-tetraaza-benzoazulen-5-yl]-ethanone]: the Ki was 1.41 nM.

Turning to `CS(=O)(=O)N1Cc2cc(Cl)ccc2-n2c(nnc2[C@H]2CC[C@H](Oc3ccccc3)CC2)C1` [Example 5, trans-8-Chloro-5-methanesulfonyl-1-(4-phenoxy-cyclohexyl)-5,6-dihydro-4H-2,3,5,10b-tetraaza-benzoazulene], the Ki is 1.7 nM.

Consider `OCCN1Cc2cc(Cl)ccc2-n2c(nnc2[C@H]2CC[C@H](Oc3ccccc3)CC2)C1` [Example 6, trans-2-[8-Chloro-1-(4-phenoxy-cyclohexyl)-4H,6H-2,3,5,10b-tetraaza-benzoazulen-5-yl]-ethanol], for which the Ki was 1.58 nM.

On to `CC(C)N1Cc2cc(Cl)ccc2-n2c(nnc2[C@H]2CC[C@H](Oc3ccccc3)CC2)C1` [Example 7, trans-8-Chloro-5-isopropyl-1-(4-phenoxy-cyclohexyl)-5,6-dihydro-4H-2,3,5,10b-tetraaza-benzoazulene], for which the Ki is 1.7 nM.

For `CN(C)S(=O)(=O)N1Cc2cc(Cl)ccc2-n2c(nnc2[C@H]2CC[C@H](Oc3ccccc3)CC2)C1` [Example 8, trans-8-Chloro-1-(4-phenoxy-cyclohexyl)-4H,6H-2,3,5,10b-tetraaza-benzoazulene-5-sulfonic acid dimethylamide], the Ki was 2 nM.

`Clc1ccc2c(c1)CN(Cc1ccccn1)Cc1nnc([C@H]3CC[C@H](Oc4ccccc4)CC3)n1-2` [Example 9, trans-8-Chloro-1-(4-phenoxy-cyclohexyl)-5-pyridin-2-ylmethyl-5,6-dihydro-4H-2,3,5,10b-tetraaza-benzoazulene]: the Ki is 1.82 nM.

For `CN(C)CC(=O)N1Cc2cc(Cl)ccc2-n2c(nnc2[C@H]2CC[C@H](Oc3ccccc3)CC2)C1` [Example 10, trans-1-[8-Chloro-1-(4-phenoxy-cyclohexyl)-4H,6H-2,3,5,10b-tetraaza-benzoazulen-5-yl]-2-dimethylamino-ethanone], the Ki was 2.09 nM.

Take `CC(C)(C)OC(=O)N1Cc2cc(F)ccc2-n2c(nnc2[C@H]2CC[C@H](Oc3ccccc3)CC2)C1` [Example 11, trans-8-Fluoro-1-(4-phenoxy-cyclohexyl)-4H,6H-2,3,5,10b-tetraaza-benzo[e]azulene-5-carboxylic acid tert-butyl ester]: the Ki is 5.5 nM.

`CN1Cc2cc(F)ccc2-n2c(nnc2[C@H]2CC[C@H](Oc3ccccc3)CC2)C1` [Example 13, trans-8-Fluoro-5-methyl-1-(4-phenoxy-cyclohexyl)-5,6-dihydro-4H-2,3,5,10b-tetraaza-benzoazulene]: the Ki is 5.37 nM.

With `CC(C)(C)OC(=O)N1Cc2cc(Cl)ccc2-n2c(nnc2[C@H]2CC[C@@H](Oc3ccccc3)CC2)C1` [Example 14, cis-8-Chloro-1-(4-phenoxy-cyclohexyl)-4H,6H-2,3,5,10b-tetraaza-benzoazulene-5-carboxylic acid tert-butyl ester], the Ki is 9.33 nM.

Regarding `CN1Cc2cc(Cl)ccc2-n2c(nnc2[C@H]2CC[C@@H](Oc3ccccc3)CC2)C1` [Example 16, cis-8-Chloro-5-methyl-1-(4-phenoxy-cyclohexyl)-5,6-dihydro-4H-2,3,5,10b-tetraaza-benzoazulene], the Ki is 2.88 nM.

Take `CC(C)(C)OC(=O)N1Cc2cc(Cl)ccc2-n2c(nnc2[C@H]2CC[C@H](Oc3ccc(F)cc3)CC2)C1` [Example 17, trans-8-Chloro-1-[4-(4-fluoro-phenoxy)-cyclohexyl]-4H,6H-2,3,5,10b-tetraaza-benzoazulene-5-carboxylic acid tert-butyl ester]: the Ki was 3.72 nM.

Regarding `Fc1ccc(O[C@H]2CC[C@H](c3nnc4n3-c3ccc(Cl)cc3CNC4)CC2)cc1` [Example 18, trans-8-Chloro-1-[4-(4-fluoro-phenoxy)-cyclohexyl]-5,6-dihydro-4H-2,3,5,10b-tetraaza-benzo[e]azulene hydrochloride], the Ki is 9.55 nM.

Consider `CN1Cc2cc(Cl)ccc2-n2c(nnc2[C@H]2CC[C@H](Oc3ccc(F)cc3)CC2)C1` [Example 19, trans-8-Chloro-1-[4-(4-fluoro-phenoxy)-cyclohexyl]-5-methyl-5,6-dihydro-4H-2,3,5,10b-tetraaza-benzoazulene], for which the Ki was 3.09 nM.

As for `CC(C)(C)OC(=O)N1Cc2cc(Cl)ccc2-n2c(nnc2[C@H]2CC[C@H](Oc3ccc(C#N)cc3)CC2)C1` [Example 20, trans-8-Chloro-1-[4-(4-cyano-phenoxy)-cyclohexyl]-4H,6H-2,3,5,10b-tetraaza-benzo[e]azulene-5-carboxylic acid tert-butyl ester], the Ki is 7.76 nM.

Take `CN1Cc2cc(Cl)ccc2-n2c(nnc2[C@H]2CC[C@H](Oc3ccc(C#N)cc3)CC2)C1` [Example 22, trans-4-[4-(8-Chloro-5-methyl-5,6-dihydro-4H-2,3,5,10b-tetraaza-benzo[e]azulen-1-yl)-cyclohexyloxy]-benzonitrile]: the Ki is 8.91 nM.

`CC(C)(C)OC(=O)N1Cc2cc(Cl)ccc2-n2c(nnc2[C@H]2CC[C@H](Oc3ccc(C(F)(F)F)cc3)CC2)C1` [Example 23, trans-8-Chloro-1-[4-(4-trifluoromethyl-phenoxy)-cyclohexyl]-4H,6H-2,3,5,10b-tetraaza-benzo[e]azulene-5-carboxylic acid tert-butyl ester]: the Ki was 9.12 nM.

On to `CC(C)(C)OC(=O)N1Cc2cc(Cl)ccc2-n2c(nnc2[C@H]2CC[C@H](Oc3cccc(Cl)c3)CC2)C1` [Example 26, trans-8-Chloro-1-[4-(3-chloro-phenoxy)-cyclohexyl]-4H,6H-2,3,5,10b-tetraaza-benzoazulene-5-carboxylic acid tert-butyl ester], for which the Ki is 4.17 nM.

In the case of `CN1Cc2cc(Cl)ccc2-n2c(nnc2[C@H]2CC[C@H](Oc3cccc(Cl)c3)CC2)C1` [Example 28, trans-8-Chloro-1-[4-(3-chloro-phenoxy)-cyclohexyl]-5-methyl-5,6-dihydro-4H-2,3,5,10b-tetraaza-benzoazulene], the Ki is 3.09 nM.

In the case of `COc1cccc(O[C@H]2CC[C@H](c3nnc4n3-c3ccc(Cl)cc3CN(C(=O)OC(C)(C)C)C4)CC2)c1` [Example 29, trans-8-Chloro-1-[4-(3-methoxy-phenoxy)-cyclohexyl]-4H,6H-2,3,5,10b-tetraaza-benzoazulene-5-carboxylic acid tert-butyl ester], the Ki is 4.68 nM.

As to `COc1cccc(O[C@H]2CC[C@H](c3nnc4n3-c3ccc(Cl)cc3CNC4)CC2)c1` [Example 30, trans-8-Chloro-1-[4-(3-methoxy-phenoxy)-cyclohexyl]-5,6-dihydro-4H-2,3,5,10b-tetraaza-benzo[e]azulene hydrochloride], the Ki was 3.31 nM.

`COc1cccc(O[C@H]2CC[C@H](c3nnc4n3-c3ccc(Cl)cc3CN(C)C4)CC2)c1` [Example 31, trans-8-Chloro-1-[4-(3-methoxy-phenoxy)-cyclohexyl]-5-methyl-5,6-dihydro-4H-2,3,5,10b-tetraaza-benzoazulene]: the Ki is 2.09 nM.

Consider `CN1Cc2cc(Cl)ccc2-n2c(nnc2[C@H]2CC[C@H](Oc3cccc(C#N)c3)CC2)C1` [Example 34, trans-3-[4-(8-Chloro-5-methyl-5,6-dihydro-4H-2,3,5,10b-tetraaza-benzoazulen-1-yl)-cyclohexyloxy]-benzo nitrile], for which the Ki is 2.69 nM.

Take `Cc1cccc(O[C@H]2CC[C@H](c3nnc4n3-c3ccc(Cl)cc3CN(C(=O)OC(C)(C)C)C4)CC2)c1` [Example 35, trans-8-Chloro-1-(4-m-tolyloxy-cyclohexyl)-4H,6H-2,3,5,10b-tetraaza-benzo[e]azulene-5-carboxylic acid tert-butyl ester]: the Ki was 4.9 nM.
